Laboratory results reported in a flash point compilation (Sun et al. 2020).

Structure (SMILES) | flash point
OCCCCO [1,4-butanediol] | 121 °C
N#CCCCCC#N [1,4-dicyanobutane] | 159 °C
CC(C)c1ccc(C(C)C)cc1 [1,4-diisopropylbenzene] | 76 °C
C=CCCCC=C [1,6-heptadiene] | -10 °C
C#CCCCC#C [1,6-heptadiyne] | 9 °C
C=CCCCCC=C [1,7-octadiene] | 5 °C
C#CCCCCC#C [1,7-octadiyne] | 23 °C
CCc1ccccc1Br [1-bromo-2-ethylbenzene] | 79 °C
CCCCBr [1-bromobutane] | 10 °C
CCCCCCBr [1-bromohexane] | 47 °C
CCCBr [1-bromopropane] | -4 °C
CCCCS [1-butanethiol] | 2 °C
CC(C)CCl [1-chloro-2-methylpropane] | -17 °C
CCc1ccc(Cl)cc1 [1-chloro-4-ethylbenzene] | 62 °C
CCCCCCCCl [1-chloroheptane] | 41 °C
CCCCCCCl [1-chlorohexane] | 26 °C
CCCCCCCCCCl [1-chlorononane] | 74 °C
CCCCCCCCCCN [1-decanamine] | 85 °C
CCCCCCCCCCO [1-decanol] | 108 °C
CCCCCCCCCCCCO [1-dodecanol] | 127 °C
C#CCCCCCCCCCC [1-dodecyne] | 79 °C
CCc1cccc(C)c1C [1-ethyl-2,3-dimethylbenzene] | 65 °C

Structure (SMILES) | flash point
CCc1ccc(C)cc1C [1-ethyl-2,4-dimethylbenzene] | 57 °C
CCc1cccc(C(C)C)c1 [1-ethyl-3-isopropylbenzene] | 63 °C
CCc1ccc(F)cc1 [1-ethyl-4-fluorobenzene] | 30 °C
CCN1CCCCC1 [1-ethylpiperidine] | 18 °C
Cc1cc(C)cc(F)c1 [1-fluoro-3,5-dimethylbenzene] | 35 °C
CCCCCCCS [1-heptanethiol] | 46 °C
CCCCCCCO [1-heptanol] | 70 °C
C=CCCCCCCCCCCCCCC [1-hexadecene] | 129 °C
CCCCCCS [1-hexanethiol] | 30 °C
Cc1cccc(I)c1 [1-iodo-3-methylbenzene] | 83 °C
CCCCCCCI [1-iodoheptane] | 79 °C
CCCCCCI [1-iodohexane] | 61 °C
CCCCCCCCI [1-iodooctane] | 95 °C
Cn1cccc1 [1-methylpyrrole] | 15 °C
CCCC[N+](=O)[O-] [1-nitrobutane] | 47 °C
CCCCCC[N+](=O)[O-] [1-nitrohexane] | 72 °C
CCCCC[N+](=O)[O-] [1-nitropentane] | 61 °C
CCCCCCCCCS [1-nonanethiol] | 79 °C
C=CCCCCCCC [1-nonene] | 25 °C
C#CCCCCCCC [1-nonyne] | 33 °C
C=CCCCCCCCCCCCCCCCC [1-octadecene] | 154 °C
CCCCCCCCS [1-octanethiol] | 68 °C

Structure (SMILES) | flash point
CCC(=O)Cc1ccccc1 [1-phenyl-2-butanone] | 91 °C
CCC(C)Cc1ccccc1 (centres undefined) [1-phenyl-2-methylbutane] | 64 °C
CC(=O)OC(C)c1ccccc1 (centres undefined) [1-phenylethylacetate] | 91 °C
CCC(=O)OC(C)c1ccccc1 (centres undefined) [1-phenylethylpropionate] | 106 °C
CCCS [1-propanethiol] | -14 °C
CCCO [1-propanol] | 23 °C
CCCCCCCCCCCS [1-undecanethiol] | 109 °C
C=CCCCCCCCCC [1-undecene] | 54 °C
CC(C)(C)C(C)(C)C [2,2,3,3-tetramethylbutane] | -0 °C
CCCC(C)(C)C(C)(C)C [2,2,3,3-tetramethylhexane] | 31 °C
C=C(C)C(=C)C [2,3-dimethyl-1,3-butadiene] | -22 °C
CC(C)=CC(C)(C)C [2,4,4-trimethyl-2-pentene] | -1 °C
CCCCC(C)Br (centres undefined) [2-bromohexane] | 40 °C
CCCC(C)Br (centres undefined) [2-bromopentane] | 21 °C
CCC(C)=O [2-butanone] | -7 °C
CC=CC#N [2-butenenitrile] | 17 °C
C=CC(=C)Cl [2-chloro-1,3-butadiene] | -20 °C
Oc1ccccc1Cl [2-chlorophenol] | 72 °C
CN(C)CCO [2-dimethylaminoethanol] | 41 °C
CCc1cccc(C)c1N [2-ethyl-6-methylaniline] | 102 °C
CCC(C)I (centres undefined) [2-iodobutane] | 24 °C

Results, then the molecule that gave them:

flash point | Structure (SMILES)
11 °C | CC(C)C(C)C(C)(C)C (centres undefined) [2,2,3,4-tetramethylpentane]
15 °C | CCCC(C)C(C)(C)C (centres undefined) [2,2,3-trimethylhexane]
-3 °C | CCC(C)C(C)(C)C (centres undefined) [2,2,3-trimethylpentane]
31 °C | CCC(C)(C)CC(C)(C)C [2,2,4,4-tetramethylhexane]
13 °C | CCC(C)CC(C)(C)C (centres undefined) [2,2,4-trimethylhexane]
-7 °C | CC(C)CC(C)(C)C [2,2,4-trimethylpentane]
16 °C | CC(C)(C)CCC(C)(C)C [2,2,5,5-tetramethylhexane]
-3 °C | CCCCC(C)(C)C [2,2-dimethylhexane]
31 °C | CCCCCCC(C)(C)C [2,2-dimethyloctane]
-23 °C | CCCC(C)(C)C [2,2-dimethylpentane]
4 °C | CC(C)(C)C#N [2,2-dimethylpropanenitrile]
31 °C | CCC(C)C(C)(C)C(C)C (centres undefined) [2,3,3,4-tetramethylhexane]
11 °C | CC(C)C(C)(C)C(C)C [2,3,3,4-tetramethylpentane]
5 °C | CCC(C)(C)C(C)C [2,3,3-trimethylpentane]
31 °C | CCC(C)(C)C(C)C(C)C (centres undefined) [2,3,4,4-tetramethylhexane]
15 °C | CCC(C)C(C)C(C)C (centres undefined) [2,3,4-trimethylhexane]
-20 °C | CC(C)=C(C)C [2,3-dimethyl-2-butene]
15 °C | CCCCC(C)C(C)C (centres undefined) [2,3-dimethylheptane]
-15 °C | CCC(C)C(C)C (centres undefined) [2,3-dimethylpentane]
-4 °C | C=C(C)CC(C)(C)C [2,4,4-trimethyl-1-pentene]

flash point | Structure (SMILES)
43 °C | CC1CC(C)(C)CC1=O (centres undefined) [2,4,4-trimethylcyclopentanone]
-12 °C | CC(C)CC(C)C [2,4-dimethylpentane]
47 °C | COC1C=CC(OC)O1 (centres undefined) [2,5-dimethoxy-2,5-dihydrofuran]
-2 °C | CC(C)CCC(C)C [2,5-dimethylhexane]
-11 °C | C1=CC2C=CC1C2 [2,5-norbornadiene]
123 °C | CC(C)c1cccc(C(C)C)c1N [2,6-diisopropylaniline]
34 °C | CCC(C)CCCC(C)C (centres undefined) [2,6-dimethyloctane]
68 °C | CC(C)(N)CO [2-amino-2-methyl-1-propanol]
51 °C | COC(CBr)OC [2-bromo-1,1-dimethoxyethane]
78 °C | Cc1ccccc1Br [2-bromotoluene]
24 °C | CCC(C)O (centres undefined) [2-butanol]
68 °C | CCCCC1CCCC1=O (centres undefined) [2-butylcyclopentanone]
-23 °C | CC(C)(C)Cl [2-chloro-2-methylpropane]
1 °C | CCCC(C)Cl (centres undefined) [2-chloropentane]
-32 °C | CC(C)Cl [2-chloropropane]
64 °C | Clc1ccccn1 [2-chloropyridine]
47 °C | Cc1ccccc1Cl [2-chlorotoluene]
90 °C | O=C1CCCC1C1CCCC1 (centres undefined) [2-cyclopentylcyclopentanone]
85 °C | CCCCCCCCC(C)=O [2-decanone]
53 °C | CC#CCCCCCCC [2-decyne]

flash point | Structure (SMILES)
113 °C | CCCCCCCCCCC(C)O (centres undefined) [2-dodecanol]
42 °C | CCOCCO [2-ethoxyethanol]
57 °C | CCC(CC)CO [2-ethyl-1-butanol]
74 °C | CCCCC(CC)CO (centres undefined) [2-ethyl-1-hexanol]
87 °C | CCC(CC)C(=O)O [2-ethylbutanoicacid]
59 °C | CCC1CCCCC1=O (centres undefined) [2-ethylcyclohexanone]
85 °C | CCc1ccccc1O [2-ethylphenol]
12 °C | Cc1ccccc1F [2-fluorotoluene]
59 °C | CCCCCC(C)O (centres undefined) [2-heptanol]
90 °C | Cc1ccccc1I [2-iodotoluene]
95 °C | CC(C)c1ccccc1N [2-isopropylaniline]
65 °C | CC(C)C1CCCCC1=O (centres undefined) [2-isopropylcyclohexanone]
89 °C | CC(C)c1ccccc1O [2-isopropylphenol]
69 °C | COC1CCCCC1=O (centres undefined) [2-methoxycyclohexanone]
-2 °C | CC1OCCO1 [2-methyl-1,3-dioxolane]
10 °C | C=C(C)CCCCC [2-methyl-1-heptene]
-8 °C | C=C(C)CCCC [2-methyl-1-hexene]
51 °C | CCCC(C)CO (centres undefined) [2-methyl-1-pentanol]
33 °C | C=C(C)CO [2-methyl-2-propen-1-ol]
